Source: patent publication US20230263822A1, “MODULATION OF FACTOR 11 EXPRESSION” (Ionis Pharmaceuticals, Inc., priority 2008, published 2023)
Strand notation (5' to 3'): a small letter for the sugar, then the base; units joined by * are phosphorothioate-linked, units joined directly phosphodiester-linked; [ ] holds rarer units or linkages, { } end groups; capitals alone tell only the bases. e = 2'-O-(2-methoxyethyl) (MOE); [5mC] = 5-methylcytosine; d = 2'-deoxy (DNA)

How the values were obtained:
human Factor 11 mRNA [1] = assay: Antisense inhibition of human Factor 11 in HepG2 cells, electroporation, 8,000 nM (Example 30); format: cell-based; conditions: electroporation, 8,000 nM antisense oligonucleotide
How it was run: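 HepG2 cells electroporated with 8,000 nM 5-10-5, 5-8-5 or 6-8-6 MOE gapmers (phosphorothioate, 5-methylcytidine), ~24 h. Factor 11 mRNA quantified by qRT-PCR, normalised to RIBOGREEN total RNA. Reported as percent inhibition versus untreated cells.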

[2] = set-up: species or system CD1 mice; conditions: mouse, in vivo, sc, 50 mg/kg
Experimental: The concentration of the full-length oligonucleotide was measured. The method used is a modification of previously published methods (Leeds et al., 1996; Geary et al., 1999) which consist of a phenol-chloroform (liquid-liquid) extraction followed by a solid phase extraction. An internal standard (ISIS 355868, a 27-mer 2′-O-methoxyethyl modified phosphorothioate oligonucleotide, […], designated herein as SEQ ID NO: 270) was added prior to extraction. […] The results are presented in Table 85 expressed as μg/g liver tissue.

[3] = set-up: species or system Sprague-Dawley rats; conditions: rat, in vivo, sc, 20 mg/kg
Experimental: The concentration of the full-length oligonucleotide as well as the total oligonucleotide concentration (including the degraded form) was measured. The method used is a modification of previously published methods (Leeds et al., 1996; Geary et al., 1999) which consist of a phenol-chloroform (liquid-liquid) extraction followed by a solid phase extraction. An internal standard (ISIS 355868, a 27-mer 2′-O-methoxyethyl modified phosphorothioate oligonucleotide, […], designated herein as SEQ ID NO: 270) was added prior to extraction. […] The results are presented in Tables 91 and 92, expressed as μg/g liver or kidney tissue. Half-lives were then calculated using WinNonlin software ([…]).

[4] = Viscosity of ISIS antisense oligonucleotides, micro-viscometer at 25 °C (Example 47); format: physicochemical; conditions: for Concentration: concentration of the viscosity sample, UV reading at 260 nM at 85° C.; for Viscosity: in water, micro-viscometer at 25° C., at the concentration of the same line
Experimental: The viscosity of antisense oligonucleotides targeting human Factor 11 was measured with the aim of screening out antisense oligonucleotides which have a viscosity more than 40 cP at a concentration of 165-185 mg/mL.
ISIS oligonucleotides (32-35 mg) were weighed into a glass vial, 120 μL of water was added and the antisense oligonucleotide was dissolved into solution by heating the vial at 50° C. Part of (75 μL) the pre-heated sample was pipetted to a micro-viscometer (Cambridge). The temperature of the micro-viscometter was set to 25° C. and the viscosity of the sample was measured. Another part (20 μL) of the pre-heated sample was pipetted into 10 mL of water for UV reading at 260 nM at 85° C. (Cary UV instrument).

human Factor 11 mRNA [5] = assay: Antisense inhibition of human Factor 11 in HepG2 cells by microwalk gapmers, lipofectin, 75 nM (Example 3); format: cell-based; conditions: HepG2 cells, lipofectin, gapmers targeted to nucleobases 1275 to 1318 of SEQ ID NO: 1
How it was run: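 HepG2 cells (10,000/well) were transfected via lipofectin with 75 nM 20-mer MOE gapmers (phosphorothioate, 5-methyl-C) for about 24 h. Factor 11 mRNA was measured by qRT-PCR, normalized to RIBOGREEN total RNA, and given as percent inhibition versus untreated cells.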

human Factor 11 mRNA [6] = assay: Dose-dependent inhibition of human Factor 11 in HepG2 cells, electroporation 123.46-10,000 nM (Example 31); format: cell-based
Experimental: Cells were plated at a density of 20,000 cells per well and transfected using electroporation with 123.46 nM, 370.37 nM, 1,111.11 nM, 3,333.33 nM and 10,000 nM concentrations of antisense oligonucleotide, as specified in Table 45. After a treatment period of approximately 16 hours, RNA was isolated from the cells and Factor 11 mRNA levels were measured by quantitative real-time PCR. Human Factor 11 primer probe set RTS 2966 was used to measure mRNA levels. Factor 11 mRNA levels were adjusted according to total RNA content, as measured by RIBOGREEN. Results are presented as percent inhibition of Factor 11, relative to untreated control cells.

human Factor 11 mRNA [7] = assay: Dose-dependent inhibition of human Factor 11 in HepG2 cells, electroporation 375-12,000 nM (Example 32); format: cell-based
Experimental: These gapmers were tested at various doses in HepG2 cells. Cells were plated at a density of 20,000 cells per well and transfected using electroporation with 375 nM, 750 nM, 1,500 nM, 3,000 nM, 6,000 nM and 12,000 nM concentrations of antisense oligonucleotide, as specified in Table 47. After a treatment period of approximately 16 hours, RNA was isolated from the cells and Factor 11 mRNA levels were measured by quantitative real-time PCR. Human Factor 11 primer probe set RTS 2966 was used to measure mRNA levels. Factor 11 mRNA levels were adjusted according to total RNA content, as measured by RIBOGREEN. Results are presented as percent inhibition of Factor 11, relative to untreated control cells.
ISIS 416850, ISIS 416858, ISIS 445522, and ISIS 445531 (see Table 45 above) were re-tested in vitro along with the microwalk gapmers under the same conditions described above.
The first two listed gapmers in Table 47 are the original gapmers (ISIS 416850 and ISIS 416858) from which the remaining gapmers were designed via microwalk and are designated by an asterisk.

Factor 11 mRNA = Factor 11 mRNA in cynomolgus monkey liver, day 55 (Example 46); format: in vivo, cynomolgus monkeys; conditions: 25 mg/kg subcutaneously, primer probe set LTS00301
Experimental: (§1) Groups, each consisting of two male and two female monkeys, were injected subcutaneously with 25 mg/kg of ISIS 416850, ISIS 449709, ISIS 445522, ISIS 449710, ISIS 449707, ISIS 449711, ISIS 449708, 416858, and ISIS 445531. Antisense oligonucleotide was administered to the monkeys at 25 mg/kg three times per week for week 1 and 25 mg/kg twice per week for weeks 2 to 8. A control group, consisting of two male and two female monkeys was injected subcutaneously with PBS according to the same dosing regimen. Body weights were taken 14 days and 7 days before the start of treatment and were then measured weekly throughout the treatment period. Blood samples were collected 14 days and 5 days before the start of treatment and subsequently several times during the dosing regimen for PT and aPTT measurements, and measurement of various hematologic factors. On day 55, the monkeys were euthanized by exsanguination while under deep anesthesia, and organs harvested for further analysis.
On day 55, RNA was extracted from liver tissue for real-time PCR analysis of Factor 11 using primer probe set LTS00301. Results are presented as percent inhibition of Factor 11, relative to PBS control.

Factor 11 protein = Factor 11 protein in monkey plasma by sandwich ELISA (Example 46); format: in vivo, cynomolgus monkeys; conditions: 25 mg/kg subcutaneously
Experimental: as §1
Plasma samples from all monkey groups taken on different days were analyzed by a sandwich-style ELISA assay (Affinity Biologicals Inc.) using an affinity-purified polyclonal anti-Factor 11 antibody as the capture antibody and a peroxidase-conjugated polyclonal anti-Factor 11 antibody as the detecting antibody. Monkey plasma was diluted 1:50 for the assay. Peroxidase activity was expressed by incubation with the substrate o-phenylenediamine. The color produced was quantified using a microplate reader at 490 nm and was considered to be proportional to the concentration of Factor 11 in the samples.
The results are presented in Table 147, expressed as percentage reduction relative to that of the PBS control.

[8] = electroporation, Factor 11 mRNA expression

Row | Substance | Percent inhibition of human Factor 11 mRNA levels (human Factor 11 mRNA [1]) [%] | Half-Life in the liver [2] [days] | Half-life of ISIS oligonucleotides in the liver and kidney [3] [days] | Concentration [4] [mg/mL] | Viscosity [4] [cP] | % inhibition (human Factor 11 mRNA [5]) [%] | other results
1 | 416848 (antisense CACAGTTTCTGGCAGGCCTC; 5-10-5 gapmer, further chemistry not given here) [compound 416848] | 87 | 23.5 | 24 | 158 | 6 | 86 | –
2 | 416851 (antisense GTGCACAGTTTCTGGCAGGC; 5-10-5 gapmer, further chemistry not given here) [compound 416851] | 89 | 23.8 | 24 | 187 | 26 | 88 | Percent inhibition of Factor 11 mRNA at 123.47 nM (human Factor 11 mRNA [6]; electroporation, 123.47 nM, approx. 16 hours, relative to untreated control cells): 13%; Percent inhibition of Factor 11 mRNA at 370.37 nM (human Factor 11 mRNA [6]; electroporation, 370.37 nM, approx. 16 hours, relative to untreated control cells): 35%; Percent inhibition of Factor 11 mRNA at 1,111.11 nM (human Factor 11 mRNA [6]; electroporation, 1,111.11 nM, approx. 16 hours, relative to untreated control cells): 36%; Percent inhibition of Factor 11 mRNA at 3,333.33 nM (human Factor 11 mRNA [6]; electroporation, 3,333.33 nM, approx. 16 hours, relative to untreated control cells): 64%; Percent inhibition of Factor 11 mRNA at 10,000.0 nM (human Factor 11 mRNA [6]; electroporation, 10,000.0 nM, approx. 16 hours, relative to untreated control cells): 72%; IC50 (human Factor 11 mRNA [6]; [8]): 1.5 µM
3 | 416852 (antisense TGGTGCACAGTTTCTGGCAG; 5-10-5 gapmer, further chemistry not given here) [compound 416852] | 87 | 28.4 | 28 | 169 | 29 | 84 | –
4 | 416859 (antisense GACGGCATTGGTGCACAGTT; 5-10-5 gapmer, further chemistry not given here) [compound 416859] | 85 | 19.0 | 19 | 161 | 10 | 90 | –
5 | 416863 (antisense CAGCGGACGGCATTGGTGCA; 5-10-5 gapmer, further chemistry not given here) [compound 416863] | 86 | 19.8 | 20 | 165 | 9 | 83 | –
6 | 416866 (antisense CTGGCAGCGGACGGCATTGG; 5-10-5 gapmer, further chemistry not given here) [compound 416866] | 84 | 16.0 | 16 | 166 | >100 | 88 | –
7 | 416867 (antisense ACTGGCAGCGGACGGCATTG; 5-10-5 gapmer, further chemistry not given here) [compound 416867] | 85 | 18.9 | 19 | 168 | 8 | 83 | –
8 | 449711 (antisense eA*e[5mC]*dA*dG*dT*dT*dT*d[5mC]*dT*dG*dG*d[5mC]*eA*eG) [compound 449711] | – | – | – | 209 | 6 | – | Percent inhibition of Factor 11 mRNA at 375 nM (human Factor 11 mRNA [7]; electroporation, 375 nM, approx. 16 hours, relative to untreated control cells): 6%; Percent inhibition of Factor 11 mRNA at 750 nM (human Factor 11 mRNA [7]; electroporation, 750 nM, approx. 16 hours, relative to untreated control cells): 14%; Percent inhibition of Factor 11 mRNA at 1,500 nM (human Factor 11 mRNA [7]; electroporation, 1,500 nM, approx. 16 hours, relative to untreated control cells): 1%; Percent inhibition of Factor 11 mRNA at 3,000 nM (human Factor 11 mRNA [7]; electroporation, 3,000 nM, approx. 16 hours, relative to untreated control cells): 7%; Percent inhibition of Factor 11 mRNA at 6,000 nM (human Factor 11 mRNA [7]; electroporation, 6,000 nM, approx. 16 hours, relative to untreated control cells): 32%; Percent inhibition of Factor 11 mRNA at 12,000 nM (human Factor 11 mRNA [7]; electroporation, 12,000 nM, approx. 16 hours, relative to untreated control cells): 52%; IC50 (human Factor 11 mRNA [7]; [8]): 11 µM; % inhibition of Factor 11 mRNA in liver relative to the PBS control (Factor 11 mRNA): 0%; Inhibition of Factor 11 protein relative to the PBS control (percentage reduction) (Factor 11 protein; Day 10, plasma): 5%; Inhibition of Factor 11 protein relative to the PBS control (percentage reduction) (Factor 11 protein; Day 17, plasma): 3%; Inhibition of Factor 11 protein relative to the PBS control (percentage reduction) (Factor 11 protein; Day 24, plasma): 6%; Inhibition of Factor 11 protein relative to the PBS control (percentage reduction) (Factor 11 protein; Day 31, plasma): 9%; Inhibition of Factor 11 protein relative to the PBS control (percentage reduction) (Factor 11 protein; Day 38, plasma): 2%; Inhibition of Factor 11 protein relative to the PBS control (percentage reduction) (Factor 11 protein; Day 45, plasma): 4%; Inhibition of Factor 11 protein relative to the PBS control (percentage reduction) (Factor 11 protein; Day 52, plasma): 3%; Inhibition of Factor 11 protein relative to the PBS control (percentage reduction) (Factor 11 protein; Day 55, plasma): 5%; Inhibition of Factor 11 protein relative to the PBS control (percentage reduction) (Factor 11 protein; Day −5, plasma): 1%; Inhibition of Factor 11 protein relative to the PBS control (percentage reduction) (Factor 11 protein; Day −14, plasma): 0%
